Assay results as given in patent US20210107865A1, “ALIPHATIC AMINE AND ITS PREPARATION METHOD AND USE” (COVESTRO D[…], priority 2017, published 2021).

Test: Solubility of lysine in amine compounds and solvents
Assay type: physicochemical
Settings: at 100° C. under normal pressure

NCCCC[C@H](N)C(=O)O [lysine, L-lysine]
solubility of lysine in 1,5-pentanediamine (in 1,5-pentanediamine): solubility of lysine in 1,5-pentanediamine is 33 g/100 g,
solubility of lysine in 1,6-hexanediamine (in 1,6-hexanediamine): is 4.6 g/100 g, measured at 100 °C under normal pressure.
solubility of lysine in cyclohexanol (in cyclohexanol): Ltd. The solubility of lysine in cyclohexanol is 0.01 g/100 g/100 g
solubility of lysine in ethylene glycol (in ethylene glycol): The solubility of lysine in ethylene glycol is 20 g/100 g,
solubility of lysine in isophoronediamine (in isophoronediamine): is 5.2 g/100 g, measured at 100 °C under normal pressure.
